Assay results taken from US6153604A, “Therapeutic substituted guanidines” (Cambridge NeuroScience, Inc., priority 1995, dated 2000).
Counter-ions that a name gives are not always drawn.

What was measured:
[1] = tested on: NMDA-induced excitotoxic damage to the central nervous system; assay: In vivo assay for protection against NMDA-induced excitotoxic damage to the central nervous system; set-up: species or system rat (Day 7 neonatal); conditions: Rattus norvegicus, ip, 120 h, intraperitoneal; for ED80: 15 minutes after intrastriatal NMDA, neonatal rats, read-out: ED80 (dose that provides 80% of the maximum protection)
Description: In vivo assay for protection against NMDA-induced excitotoxic damage to the central nervous system.
The in vivo potency of compounds of the present invention is exemplified by data summarized in Table II and obtained pursuant to the following protocol. Day 7 neonatal rats were anesthetized with metophane inhalation anesthetic for 4-6 minutes, inserted into a stereotaxic apparatus and injected intrastriatally with 0.5 μl of 50 mM NMDA (N-methyl-D-aspartate). 15 minutes after the NMDA injection, the rat pups were injected intraperitoneally with 10, 30 or 60 μmol/kg of the NMDA antagonist of the structure specified in Table II Animals were returned to their mother and watched for signs of distress (e.g., respiratory depression). After five days, the animals were anesthetized with CO2 and then decapitated; their brains were removed and weighed to determine the degree of neuroprotection. Because NMDA injection results in a retardation of brain growth (including necrosis), effects can be measured gravimetrically in terms of the weights of injected and non-injected hemispheres. Two groups of rat pups were used at each of three doses of a compound to generate a neuroprotection dose-response curve. The chemical structure of each of the tested compounds is specified below with the general formula of the compounds shown at the top of Table II with particular substituent groups specified within that Table. Table II discloses 1) the ED80 for each tested compound, i.e., the dose of a compound that provides 80% of the maximum protection against damage to the central nervous system; and 2) the percent (%) maximum protection against damage to the central nervous system provided by the indicated dose expressed as μmol per kilogram bodyweight of the test subject.

[2] = tested on: rat model of Korsakoff's disease; conditions: pretreatment of animals; cited from earlier work

SMILES	inhibition in vivo at 60 µmol/kg ([1]; dose 60 μmol/kg, read-out: % maximum protection per dose) [%]	ED80 [1] [µmol/kg]	inhibition in vivo at 30 µmol/kg ([1]; dose 30 μmol/kg, read-out: % maximum protection per dose) [%]	extent of cell loss, hemorrhages and amino acid changes [2]
Cc1ccc(Cl)c(NC(=N)Nc2cccc3ccccc23)c1 [Cmpd. No. 10 (Table II), N-(1-Naphthyl)-N'(2-chloro-5-methylphenyl)guanidine hydrochloride]	96.4	45.8	–	–
CCc1ccc(Cl)c(NC(=N)Nc2cccc3cccnc23)c1 [Cmpd. No. 11 (Table II), N-(8-Quinolinyl)-N'-(2-chloro-5-ethylphenyl)guanidine hydrochloride]	–	14.2	94.5	–
C[C@]12N[C@H](Cc3ccccc31)c1ccccc12 [MK-801, (+)-5-methyl-10,11-dihydro-5H-dibenzo[a,d]cycloheptene-5,10-imine]	–	–	–	markedly attenuates the extent of cell loss, hemorrhages and amino acid changes
